How the values were obtained:
[1] = Membrane permeability (Papp) across Caco-2 cell monolayers; format: in vitro ADME; conditions: human, Caco-2 monolayer; for Papp A→B: apical to basolateral, read-out: Papp (cm/s × 10^6) AP-to-BL; for Papp B→A: basolateral to apical, read-out: Papp (cm/s × 10^6) BL-to-AP; for efflux ratio: read-out: RATIO Papp^B-A/Papp^A-B
Caco-2 cells = assay: as above; format: in vitro ADME; conditions: Caco-2; for EFFLUX LIMITED: Yes/No; for PERMEABILITY: class in words (High/Low)
mice = assay: Conditioned avoidance responding (CAR, active avoidance); format: in vivo; conditions: SC to mice, 20 minutes before test session
Method: Training: Consists of 20 trials with variable inter-trial intervals (Trained to 80% Avoidance Criteria). After a one-minute acclimation period, the house light and an acoustic 90 dB tone (conditioned stimuli) are presented. A response (crossing to dark compartment) within 5 seconds ends the trial and trial is recorded as avoidance response (CAR). […] To avoid shock, animals learn to move from the lighted side of the -chamber to the dark side when the cue is presented (avoidance) or moved when the shock is administered (escape). Testing: Vehicle or test compounds are administered S.C. 20 minutes before the test session. (Checking for disruption of cognition and attention)

male C-57 mice = assay: PCP disruption of pre-pulse inhibition of the acoustic startle response; format: in vivo; conditions: route not given (method: PO or SC); PCP 5 mg/kg IP
Method: The non-competitive NMDA receptor antagonist phencyclidine (PCP) reduces pre-pulse inhibition (PPI) of the acoustic startle response in rodents. Identifying compounds that improve the PCP-induced deficits in pre-pulse inhibition may provide insight into therapeutic strategies for treating schizophrenia. For testing of PPI, male C-57 mice were assigned to five dose groups of eight animals per group, and vehicle or test compound were administered orally (PO) or subcutaneously (SC) 20 minutes prior to intraperitoneal (IP) administration of vehicle or PCP (5 mg/kg). Ten minutes following PCP administration, the mice were placed into Hamilton-Kinder startle chambers and evaluation of pre-pulse inhibition procedure was performed. Following a five-minute acclimatization period with background white noise (65 db), mice were exposed to five different trial types. Trials were presented […] in a quasi-random order, with randomized 5 to 25 second inter-trial intervals. Trials were: stimulus only trial (120 db white noise, 50 ms stimulus); two different prepulse+pulse trials in which a 20 ms 5 db, or 10 db stimuli above a 65 db background preceded the 120 db pulse by 120 ms; a 10 db prepulse without a 120 db pulse; and a no stimulus trial, in which only the background noise was presented.

Row | Structure (SMILES) | Papp A→B [1] [×10⁻⁶ cm/s] | Papp B→A [1] [×10⁻⁶ cm/s] | efflux ratio [1] | EFFLUX LIMITED (Caco-2 cells) | PERMEABILITY (Caco-2 cells) | Conditioned Avoidance Responding, overall effect / effect on escape or avoidance (mice) | PCP Disruption of Pre-pulse Inhibition, result in words (male C-57 mice) | Conditioned Avoidance Responding, effect on latency (mice) | Conditioned Avoidance Responding, effect on avoidance (mice)
1 | CN1CCN(C2=Nc3cc(Cl)ccc3Nc3ccccc32)CC1 [Clozapine, clozapine, reference compound] | 15.3 ± 0.7 | 7.4 ± 1.1 | 0.65 | No | High |  |  |  | 
2 | O=C1CCCc2c1ccn2CCCN1CCN(c2cccc(C(F)(F)F)c2)CC1 [NEO-356, 1-{3-[4-(3-Trifluoromethylphenyl)piperazin-1-yl]propyl}-1,5,6,7-tetrahydroindol-4-one] | 21.5 ± 2.9 | 8.8 ± 0.3 | 0.41 | No | High | No effect | No reversal |  | 
3 | O=C1CCCc2c1ccn2CCN1CCN(c2cccc(C(F)(F)F)c2)CC1 [NEO-359, 1-{2-[4-(3-Trifluoromethylphenyl)piperazine-1-yl]ethyl}-1,5,6,7-tetrahydroindol-4-one] | 24 ± 3.9 | 7.6 ± 0.5 | 0.32 | No | High | No effect on escape or avoidance | No reversal | Significant decrease in latency | 
4 | O=C1CCCc2c1ccn2CCCN1CCN(c2cccc(Cl)c2)CC1 [NEO-363, 1-{3-[4-(3-Chlorophenyl)piperazine-1-yl]propyl}-1,5,6,7-tetrahydroindol-4-one] | 18 ± 0.7 | 13.1 ± 1.1 | 0.75 | No | High | No effect |  |  | 
5 | COc1ccccc1N1CCN(CCCn2ccc3c2CCCC3=O)CC1 [NEO-370, 1-{3-[4-(2-Methoxyphenyl)piperazine-1-yl]propyl}-1,5,6,7-tetrahydroindol-4-one] | 32.1 ± 8.1 | 20 ± 3.4 | 0.67 | No | High |  |  | Significant increase in latency | Significant reduction in avoidance
6 | O=C1CCCc2c1ccn2CCN1CCN(c2cccc(Cl)c2)CC1 [NEO-376, 1-{2-[4-(3-Chloro-phenyl)-piperazin-1-yl]-ethyl}-1,5,6,7-tetrahydroindol-4-one] | 20.4 ± 1.8 | 9.4 ± 0.3 | 0.43 | No | High | No effect on escape or avoidance |  | significant increase in latency | 
7 | COc1ccccc1N1CCN(CCn2ccc3c2CCCC3=O)CC1 [NEO-377, 1-{2-[4-(2-Methoxyphenyl)-piperazin-1-yl]-ethyl}-1,5,6,7-tetrahydroindol-4-one] | 26 ± 1.8 | 15.5 ± 2.9 | 0.6 | No | High |  |  | Significant increase in latency | Significant reduction in avoidance
8 | O=C1CCCc2c1ccn2CCCN1CCN(c2ncccn2)CC1 [NEO-381, 1-{3-[4-(2-Pyrimidyl)piperazine-1-yl]propyl}-1,5,6,7-tetrahydroindol-4-one] | 32.9 ± 9.6 | 25.3 ± 0.7 | 0.77 | No | High | No effect | No reversal |  | 
9 | O=C1CCCc2c1ccn2CCCCN1CCN(c2cccc(C(F)(F)F)c2)CC1 [NEO-392, 1-{4-[4-(3-Trifluoromethylphenyl)piperazin-1-yl]-butyl}-1,5,6,7-tetrahydroindol-4-one] | 27.1 ± 1.2 | 15.7 ± 1.3 | 0.58 | No | High |  |  | Significant increase in latency | Significant reduction in avoidance
10 | CC(C)NCC(O)COc1cccc2ccccc12 (stereo not shown) [Propranolol, reference compound] | 17.3 ± 2.3 |  |  | No | High |  |  |  | 
11 | Cc1nc2n(c(=O)c1CCN1CCC(c3noc4cc(F)ccc34)CC1)CCCC2 [Risperidone, risperidone, reference compound] | 21.5 ± 0.2 | 14 ± 3.1 |  | No | High |  |  | Significant increase in latency | Significant reduction in avoidance
